Reference: publication PMC8698759, “Gold(I) Complexes Bearing Alkylated 1,3,5-Triaza-7-phosphaadamantane Ligands as Thermoresponsive Anticancer Agents in Human Colon Cells” (Biomedicines, 2021)

What was measured:
[1] = Distribution coefficient (logD7.4), shake-flask n-octanol/buffered water; format: physicochemical; conditions: n-octanol/phosphate buffered saline pH 7.4, shake-flask
Procedure: The n-octanol-water coefficients of the phosphane derivatives were determined as previously reported using a shake-flask method. Briefly: Buffered-saline distilled water (100 mL, phosphate buffer [PO4^3−] = 10 mM, [NaCl] = 0.15 M, pH 7.4) and n-octanol (100 mL) were shaken together for 72 h to allow saturation of both phases. 1 mg of the complexes was dissolved in 5 mL of the aqueous phase and 5 mL of the organic phase were added, mixing for 10 min. The concentration of the complexes in the organic and aqueous phases were then determined using UV absorbance spectroscopy. LogD7.4 = log{[compound(organic phase)]/[compound(aqueous phase)]}.
The lipophilicity can be measured by the partition coefficient water/n-octanol, logD, by experimental procedures such as the shake flask method, which affords the distribution of the drug between an equal amount of n-octanol and water (or buffered aqueous solution).

Human fibroblast cells = assay: MTT cytotoxicity assay on fibroblasts; format: cell-based; conditions: for fibroblasts viability when treated at the IC50 value in Caco-2: 3a 2.5 µM, 3b 5.1 µM, 2a 12.3 µM, 2b 10.5 µM; for Selectivity Index (SI): IC50 fibroblasts/IC50 Caco-2; for IC50: MTT, mean ± SE
Procedure: Human Caco-2 cell line (TC7 clone) was kindly provided by Dr. Edith Brot-Laroche (Université Pierre et Marie Curie-Paris 6, UMR S 872, Les Cordeliers, France). Human fibroblast cells were kindly provided by Dr. Julio Montoya (Unidad de Bioquímica, Facultad de Veterinaria, Universidad de Zaragoza, Spain). Caco-2 cells (passages 40–70) and fibroblasts (passages 10–30) were maintained in a humidified atmosphere of 5% CO2 at 37 °C. Cells were grown in Dulbecco’s Modified Eagles medium (DMEM) (Gibco Invitrogen, Paisley, UK) supplemented with 20% fetal bovine serum (FBS), 1% non-essential amino acids, 1% penicillin (1000 U/mL), 1% streptomycin (1000 μg/mL) and 1% amphotericin (250 U/mL). The cells were passaged enzymatically with 0.25% trypsin-1 mM EDTA. Caco-2 cells were sub-cultured on 25 cm^2 plastic flasks at a density of 1.2 × 10^4 cells/cm^2, while fibroblasts were sub-cultured on 75 cm^2 plastic flasks at a density of 1 × 10^4 cells/cm^2. Culture medium was replaced every 2 days.
Gold complex was diluted in dimethyl sulfoxide (DMSO) to a stock solution at 20 mM and then re-diluted to a working solution at 2.5 mM before diluting it in cell culture medium to treat cells at desired concentrations.
For cytotoxicity screening assays, Caco-2 cells were seeded in 96-well plates at a density of 4 × 10^3 cells/well. Culture medium was replaced with medium containing drug panel 24 h post-seeding and cells were incubated for 72 h. In fibroblasts, culture medium containing metal gold complexes was added 10 days post-seeding. Antiproliferative effect was measured with MTT assay as previously described by Mármol et al.. Absorbance at 540/620 nm was measured with SPECTROstar Nano (BMG Labtech). To determine the selectivity index (SI) the IC50 value in fibroblasts was divided by IC50 value in Caco-2, obtaining a ratio cancerous/normal cells toxicity.

Caco-2 cells [2] = assay: Propidium iodide staining of DNA content and cell cycle analysis; format: cell-based, human; conditions: 3a 5.0 µM, 3b 10.2 µM; for cells in G0-G1 phase, 40 °C / cells in G2-M phase, 40 °C / cells in S phase, 40 °C: Caco-2, 1 h at 40 °C plus 47 h at 37 °C; for cell cycle progression: Caco-2, 48 h; for cells in G0-G1 phase, 37 °C / cells in G2-M phase, 37 °C / cells in S phase, 37 °C: Caco-2, 48 h at 37 °C
Procedure: Caco-2 cells were seeded in 25 cm^2 flasks at a density of 1 × 10^4 cells/cm^2 and 24 h post-seeding, were exposed to drug panel for 48 h. Cells were fixed as described by Sánchez-de-Diego et al. before staining them with 50 μg/mL PI solution.

Caco-2 cells [3] = assay: Mitochondrial membrane potential assay by flow cytometry (DilC1); format: cell-based, human; conditions: Caco-2, 48 h; 3a 5.0 µM, 3b 10.2 µM
Procedure: Caco-2 cells were seeded in 75 cm^2 flasks at a density of 1 × 10^4 cells/cm^2 and 24 h post-seeding medium was replaced with medium containing drug panel and incubated for 48 h. Then. cells were washed twice and resuspended in PBS at a concentration of 10^6 cells/mL before incubation with 5 µL of 10 µM 1,1′,3,3,3′-hexamethylindodicarbo-cyanine iodide (DilC1).

Caco-2 cells [4] = assay: Intracellular ROS levels, dichlorofluorescein assay; format: cell-based, human; conditions: for intracellular ROS levels, 1 h and 3 h: Caco-2, treated for 1 h and 3 h at IC50 values; for intracellular ROS levels, 24 h: Caco-2, treated for 24 h with IC50 values
Procedure: Caco-2 cells were seeded in 96-wells plate at a density of 4 × 10^3 cells/well and intracellular ROS levels were determined with the dichlorofluorescein assay. Cells were exposed to drug panel for 1, 3 and 24 h and then incubated with 20 µM 2′-7′-dichlorofluorescein diacetate (DCFH-DA) (Merck KGaA, Darmstadt, Germany) in DMEM. The generation of oxidised derivative DCF was monitored by measuring the increase of fluorescence for 1 h, at an emission wavelength of 520 nm and excitation of 485 nm, with a FLUOstar Omega (BMG Labtech, Ortenberg, Germany) multiplate reader. Results were expressed as percentage of fluorescence respect to control, considering fluorescence intensity as a reflection of intracellular ROS levels.

Recombinant Human TrxR1 = target: T1, Recombinant Human TrxR1 (Homo sapiens, UniProt Q16881); assay: Thioredoxin reductase 1 (TrxR1) activity assay; format: biochemical; conditions: auranofin 25 µM; 3a and 3b at IC50 concentrations
T1 construct: purchased Sigma-Aldrich SRP6081
T1 sequence (Q16881 151-649 limits assumed): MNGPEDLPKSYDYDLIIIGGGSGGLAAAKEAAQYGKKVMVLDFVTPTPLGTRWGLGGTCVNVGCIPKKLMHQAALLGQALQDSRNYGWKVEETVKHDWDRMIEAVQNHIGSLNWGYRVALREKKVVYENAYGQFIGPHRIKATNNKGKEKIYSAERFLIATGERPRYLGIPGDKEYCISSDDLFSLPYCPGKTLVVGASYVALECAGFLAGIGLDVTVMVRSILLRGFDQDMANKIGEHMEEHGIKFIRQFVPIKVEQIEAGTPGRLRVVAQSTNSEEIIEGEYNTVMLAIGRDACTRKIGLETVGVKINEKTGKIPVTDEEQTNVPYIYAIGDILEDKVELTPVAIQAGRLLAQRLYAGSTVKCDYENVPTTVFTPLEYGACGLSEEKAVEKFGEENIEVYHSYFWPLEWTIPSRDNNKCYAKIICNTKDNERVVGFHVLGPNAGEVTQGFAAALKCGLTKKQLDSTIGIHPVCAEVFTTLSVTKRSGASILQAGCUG
Procedure: Recombinant Human TrxR1 (Sigma-Aldrich SRP6081, St. Louis, MO, USA) was incubated in a 96 well plate with different concentration of Au complex previously dissolved in 25 μL of PBS at pH 7.4. The cell solution was incubated in shake motion for 5 min at 37 °C. After incubation time, procedure in Thioredoxin Reductase Assay Kit (Sigma-Aldrich CS0170, St. Louis, MO, USA) was followed. Finally, reaction was started by adding 6 μL DNTB and absorbance at 405 nm was recorded every 30 s for 22 min as a measure of Thioredoxin Reductase Activity.

| Structure (SMILES) | logD7.4 [1] | fibroblasts viability when treated at the IC50 value in Caco-2 (Human fibroblast cells) | Selectivity Index (SI) (Human fibroblast cells) | IC50 (Human fibroblast cells) [µM] | cells in G0-G1 phase, 40 °C (Caco-2 cells [2]) [%] | cells in G2-M phase, 40 °C (Caco-2 cells [2]) [%] | cells in S phase, 40 °C (Caco-2 cells [2]) [%] | cell cycle progression (Caco-2 cells [2]) | cells in G0-G1 phase, 37 °C (Caco-2 cells [2]) [%] | cells in G2-M phase, 37 °C (Caco-2 cells [2]) [%] | cells in S phase, 37 °C (Caco-2 cells [2]) [%] | mitochondrial depolarisation (cells with reduced ΔΨm) (Caco-2 cells [3]) | intracellular ROS levels, 1 h and 3 h (Caco-2 cells [4]) | intracellular ROS levels, 24 h (Caco-2 cells [4]) | TrxR1 activity related to control (Recombinant Human TrxR1) |
| --- | --- | --- | --- | --- | --- | --- | --- | --- | --- | --- | --- | --- | --- | --- | --- |
| CCCCCCCC[N+]12CN3CN(C1)C[P+]([Au-][S]c1ccccn1)(C3)C2.[I-] [Complex 3a, [Au(C5H5NS)(PTA-CH2(CH2)6CH3)]I] | 0.35 | did not compromise fibroblasts viability | 4.86 | 12.11 ± 0.11 | 63.7 | 27.78 | 8.56 | increasing amount of cells in G0-G1 phase | 43.3 | 14.4 | 42.4 | induced mitochondrion depolarisation | did not bring significant changes | significant increase | Inhibitory effect |
| FC(F)(F)C(F)(F)C(F)(F)C(F)(F)C(F)(F)C(F)(F)CC[N+]12CN3CN(C1)C[P+]([Au-][S]c1ccccn1)(C3)C2.O=S(=O)([O-])C(F)(F)F [Complex 3b, [Au(C5H5NS)(PTA-CH2CH2(CF2)5CF3)](TfO)] | 0.44 | did not compromise fibroblasts viability | 2.51 | 12.8 ± 1.48 | 48.1 | 17.2 | 34.7 | increasing amount of cells in G0-G1 phase | 41.4 | 12.5 | 46.1 | induced mitochondrion depolarisation | did not bring significant changes | significant increase | Inhibitory effect |
